PMC12446476 (Nature Communications, 2025)
In brackets after ≈: the same amount, converted by molar mass. Several values for one entry are separate records, joined by “and”; a condition that tells them apart may be missing. Identical values can stand only once. Like-named read-outs stand apart in the source and are kept apart here. Blank lines part the entries; values can stand above or below the compound they belong to.

Experiments:
N. gonorrhoeae [1] = assay: MIC determination, agar dilution (CLSI); assay type: cell-based, Neisseria gonorrhoeae; settings: for MIC: Neisseria gonorrhoeae, read-out: Minimum inhibitory concentration; for NgMIC50: screening panel of 14 N. gonorrhoeae isolates
Text: The 2024 WHO N. gonorrhoeae reference strains were used for quality control. Only whole MIC doubling dilutions are reported. Clinical breakpoints or the epidemiological cutoff (ECOFF, to indicate azithromycin resistance) from EUCAST (v14.0, https://www.eucast.org/clinical_breakpoints) were used to classify isolates as antimicrobial susceptible or resistant. […] Two times the standard inoculum defined by CLSI was used to establish consistent growth in untreated control samples for some strains. In vitro time-kill assays were performed according to CLSI guidelines[65] using Columbia Broth (BD Difco) supplemented with 1% IsoVitaleX Enrichment (BD). Viable bacterial counts were generated by plating 10-fold serially diluted samples on GC agar plates containing 1% IsoVitaleX Enrichment (BD).

[2] = target: T1, recombinant NgFabI protein (Neisseria gonorrhoeae, UniProt A0ACH0F547); assay: biochemical
T1 sequence (A0ACH0F547 entry or part of it): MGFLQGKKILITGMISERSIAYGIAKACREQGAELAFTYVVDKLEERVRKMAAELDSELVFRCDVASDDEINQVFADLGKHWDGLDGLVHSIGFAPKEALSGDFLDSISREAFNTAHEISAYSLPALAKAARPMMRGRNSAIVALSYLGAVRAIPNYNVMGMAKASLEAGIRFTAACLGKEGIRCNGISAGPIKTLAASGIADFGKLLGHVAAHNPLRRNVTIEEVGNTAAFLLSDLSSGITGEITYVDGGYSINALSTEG
Experimental: FabI activity was monitored by measuring NADH consumption. […] To initiate reactions, 50 µM NADH was added, and absorbance was monitored at 340 nm every 12 s for a total of 40 min using a Spectramax Plus 384 plate reader (Molecular Devices) at a controlled temperature of 30 °C. Data were analysed using the XLfit Microsoft Excel plugin (version 5.5). IC50 values were determined using a logistic sigmoid curve-fitting of the inhibitor dose response curves.

human lymphocytes = assay: In vitro micronucleus test; assay type: cell-based; settings: for Micronucleated cells: 1000 scored cells
N. gonorrhoeae [3] = assay: In vitro selection of mutants with reduced susceptibility; assay type: cell-based, Neisseria gonorrhoeae
Experimental: N. gonorrhoeae strains were grown overnight on chocolate agar plates, as described above. […] Plates were incubated at 35 ± 2 °C in a humid 5% CO2–enriched atmosphere for 48–72 h.

HepG2 cells = assay: HepG2 cytotoxicity (CytoTox-ONE membrane integrity); assay type: cell-based, human; settings: 24 h
Experimental: (§1) HepG2 cells (HB-8065; ATCC) cultured in DMEM (Gibco) with 5% fetal bovine serum (heat-inactivated, Sigma-Aldrich) and 1% penicillin-streptomycin (ThermoFisher), were seeded in 96-well plates (3.0 × 10^4 per well) and incubated at 37 °C and 5% CO2. […] Each treatment was assessed in triplicate. Cytotoxicity was determined using CytoTox-ONE^TM Homogenous Membrane Integrity Assay kits (Promega), and cell viability was determined using CellTiter-Glo® Luminescent Cell Viability Assay kits (Promega), each according to the manufacturer’s specifications.

[4] = HepG2 cell viability (CellTiter-Glo); assay type: cell-based; settings: human, HepG2 cells, read-out: Cell viability, Mean (n=3)
Experimental: as §1

[5] = target: T1, recombinant NgFabI protein; settings: cited from earlier work
E. coli WP2 uvrA = assay: Ames assay, E. coli strain; assay type: cell-based; settings: without S9, positive control 500 µg/plate
Experimental: Ames assays were performed using four strains of Salmonella typhimurium (TA1535, TA1537, TA98 and TA100) and a single strain of E. coli (WRP2 uvrA) in the presence and absence of S9 tissue homogenate. Dose levels (µg/plate) up to 4000 were assessed for WP2 uvrA and TA98, 500 for TA1535, 250 for TA1537 and 62.5 for TA100.

[6] = system: mouse lymphoma L5178Y TK+/− cells; assay type: cell-based; settings: positive control, 10 µg/mL
S. aureus ATCC 29213 = assay: S. aureus neutropenic murine thigh infection model; assay type: in vivo, mouse; settings: ICR mice, 100 mg/kg PO, TID, 48h; 100 mg/kg
Experimental: The S. aureus neutropenic murine thigh infection model was performed in accordance with the Guide for Care and Use of Laboratory Animals[75]. Animal rooms were maintained at a temperature range of 20–24 °C and humidity between 30% and 70%, with 12 h light/dark cycles. Female ICR mice (BioLASCO Taiwan Co., Ltd.) were rendered neutropenic via IP injection of cyclophosphamide four days before infection (150 mg/kg) and again one day before infection (100 mg/kg). Animals were anaesthetised with isoflurane (3–5%), then inoculated intramuscularly with S. aureus ATCC 29213 (~1 × 10^5 CFU/mouse). […] Animals were sacrificed via CO2 asphyxiation at either 2 h (baseline), 26 and/or 50 h post-infection. Thigh tissues were harvested and homogenised in 3 mL sterile PBS (pH 7.4). Bacterial burdens were determined by performing 10-fold serial dilutions and plating on nutrient agar plates.

[7] = screening panel N. gonorrhoeae isolate A
[8] = screening panel N. gonorrhoeae isolate B
[9] = screening panel N. gonorrhoeae isolate C
[10] = screening panel N. gonorrhoeae isolate D
[11] = screening panel N. gonorrhoeae isolate E
[12] = screening panel N. gonorrhoeae isolate F
[13] = screening panel N. gonorrhoeae isolate G
[14] = screening panel N. gonorrhoeae isolate H
[15] = screening panel N. gonorrhoeae isolate I
[16] = screening panel N. gonorrhoeae isolate J
[17] = screening panel N. gonorrhoeae isolate K
[18] = screening panel N. gonorrhoeae isolate L
[19] = screening panel N. gonorrhoeae isolate M
[20] = screening panel N. gonorrhoeae isolate N
[21] = Suppl. Table 4, 31 h treatment, without S9, 31 h sampling, 0.08 µg/mL
[22] = Suppl. Table 5, 31 h treatment, without S9, 31 h sampling, 0.04 µg/mL
[23] = Suppl. Table 4, 3 h treatment, with S9, 32 h sampling, 15 µg/mL
[24] = Suppl. Table 5, 3 h treatment, with S9, 32.5 h sampling, 20 µg/mL

- MIC (N. gonorrhoeae [1]; [7]): 0.25 µg/mL (≈ 0.64 µM)
- MIC (N. gonorrhoeae [1]; [8]): 0.125 µg/mL (≈ 0.32 µM)
- MIC (N. gonorrhoeae [1]; [9]): 0.125 µg/mL (≈ 0.32 µM)
- MIC (N. gonorrhoeae [1]; [10]): 0.25 µg/mL (≈ 0.64 µM)
- MIC (N. gonorrhoeae [1]; [11]): 0.125 µg/mL (≈ 0.32 µM)
- MIC (N. gonorrhoeae [1]; [12]): 0.25 µg/mL (≈ 0.64 µM)
- MIC (N. gonorrhoeae [1]; [13]): 0.5 µg/mL (≈ 1.28 µM)
- MIC (N. gonorrhoeae [1]; [14]): 0.25 µg/mL (≈ 0.64 µM)
- MIC (N. gonorrhoeae [1]; [15]): 0.125 µg/mL (≈ 0.32 µM)
- MIC (N. gonorrhoeae [1]; [16]): 0.25 µg/mL (≈ 0.64 µM)
- MIC (N. gonorrhoeae [1]; [17]): 0.5 µg/mL (≈ 1.28 µM)
- MIC (N. gonorrhoeae [1]; [18]): 0.25 µg/mL (≈ 0.64 µM)
- MIC (N. gonorrhoeae [1]; [19]): 0.125 µg/mL (≈ 0.32 µM)
- MIC (N. gonorrhoeae [1]; [20]): 0.125 µg/mL (≈ 0.32 µM)
- IC50 [2]: 6 nM
SMILES: Cc1c(CN(C)C(=O)/C=C/c2cnc3c(c2)NCCC(=O)N3)oc2ccccc12 [Compound 1]
- NgMIC50 (N. gonorrhoeae [1]): 0.25 µg/mL

SMILES: COc1cc2c(c(OC)c1OC)-c1ccc(OC)c(=O)cc1[C@@H](NC(C)=O)CC2 [Colchicine]
- Incidence of micronucleated cells (human lymphocytes; -S9, treatment 31 h, harvest 31 h, positive control 0.04 µg/mL (Debio 1453 study)): 1.85%
- Incidence of micronucleated cells (human lymphocytes; -S9, treatment 31 h, harvest 31 h, positive control 0.08 µg/mL (Debio 1453P study)): 3.35%
- Micronucleated cell percentage (human lymphocytes; [21]): 3.35%
- Micronucleated cells (human lymphocytes; [21]): 33 and 34
- Micronucleated cell percentage (human lymphocytes; [22]): 1.85%
- Micronucleated cells (human lymphocytes; [22]): 19 and 18

SMILES: O=C(O)c1cn(C2CC2)c2cc(N3CCNCC3)c(F)cc2c1=O [Ciprofloxacin, reference compound]
- Mutants (colonies) (N. gonorrhoeae [3]; 6926, 4x MIC): 4
- Mutants (colonies) (N. gonorrhoeae [3]; 6926, 8x MIC): 5
- Mutants (colonies) (N. gonorrhoeae [3]; 6926, 16x MIC): 1
- Mutants (colonies) (N. gonorrhoeae [3]; ATCC 700825, 4x MIC): 1
- Mutants (colonies) (N. gonorrhoeae [3]; ATCC 700825, 8x MIC): 0
- Mutants (colonies) (N. gonorrhoeae [3]; ATCC 700825, 16x MIC): 0

SMILES: CN(C)CCCN1c2ccccc2Sc2ccc(Cl)cc21 [chlorpromazine]
- Cytotoxicity, Mean (n=3) (HepG2 cells; 5 µM): 5%
- Cytotoxicity, Mean (n=3) (HepG2 cells; 50 µM): 33%
- Cytotoxicity, Mean (n=3) (HepG2 cells; 250 µM): 29%
- viability at 24 h, 5 µM ([4]; 5 µM): 101%
- viability at 24 h, 50 µM ([4]; 50 µM): 1%
- viability at 24 h, 250 µM ([4]; 250 µM): 0%

SMILES: Cc1c(CN(C)C(=O)/C=C/c2cnc3c(c2)CCC(=O)N3)oc2ccccc12 [Debio 1452, (E)-N-methyl-N-((3-methylbenzofuran-2-yl)methyl)-3-(7-oxo-5,6,7,8-tetrahydro-1,8-naphthyridin-3-yl)acrylamide, reference compound]
- MIC (N. gonorrhoeae [1]; [11]): 0.5 µg/mL (≈ 1.33 µM)
- MIC (N. gonorrhoeae [1]; [12]): 2 µg/mL (≈ 5.33 µM)
- MIC (N. gonorrhoeae [1]; [13]): 4 µg/mL (≈ 10.7 µM)
- MIC (N. gonorrhoeae [1]; [14]): 2 µg/mL (≈ 5.33 µM)
- MIC (N. gonorrhoeae [1]; [15]): 1 µg/mL (≈ 2.66 µM)
- MIC (N. gonorrhoeae [1]; [16]): 2 µg/mL (≈ 5.33 µM)
- MIC (N. gonorrhoeae [1]; [17]): 4 µg/mL (≈ 10.7 µM)
- IC50 ([5]; deduced from Figure 3A of reference 15): ~100 nM
- Ki ([5]; seen by the reviewer in the cited work, read-out: Kiapp): 5 nM

SMILES: COS(C)(=O)=O [MMS, Methyl methanesulfonate]
- Ames bacterial mutation assessment, Mean (E. coli WP2 uvrA): 168
- Colony count (E. coli WP2 uvrA): 174 and 161 and 169
- Induced mutant frequency [6]: 421.6
- Mutant frequency per 10^6 cells [6]: 490.9

SMILES: O=P1(N(CCCl)CCCl)NCCCO1 (stereo not drawn) [Cyclophosphamide]
- Incidence of micronucleated cells (human lymphocytes; +S9, treatment 3 h, harvest 32 h, positive control 15 µg/mL (Debio 1453P study)): 3.00%
- Incidence of micronucleated cells (human lymphocytes; +S9, treatment 3 h, harvest 32.5 h, positive control 20 µg/mL (Debio 1453 study)): 7.15%
- Micronucleated cell percentage (human lymphocytes; [23]): 3.00%
- Micronucleated cells (human lymphocytes; [23]): 21 and 39
- Micronucleated cell percentage (human lymphocytes; [24]): 7.15%
- Micronucleated cells (human lymphocytes; [24]): 78 and 65

SMILES: CC(=O)NC[C@H]1CN(c2ccc(N3CCOCC3)c(F)c2)C(=O)O1 [Linezolid, reference compound]
- CFU per thigh (S. aureus ATCC 29213): 930 CFU per thigh and 510 CFU per thigh and 570 CFU per thigh and 750 CFU per thigh and 720 CFU per thigh
- Log10(CFU/Thigh) (S. aureus ATCC 29213): 2.968 Log10(CFU/Thigh) and 2.708 Log10(CFU/Thigh) and 2.756 Log10(CFU/Thigh) and 2.875 Log10(CFU/Thigh) and 2.857 Log10(CFU/Thigh)

SMILES: Cc1c(CN(C)C(=O)/C=C/c2cnc3c(c2)N[C@@H](C)CC(=O)N3)oc2ccccc12 [Compound 6]
- Minimum inhibitory concentration (N. gonorrhoeae [1]; [7]): 1 µg/mL (≈ 2.47 µM)
- Minimum inhibitory concentration (N. gonorrhoeae [1]; [8]): 0.5 µg/mL (≈ 1.24 µM)
- Minimum inhibitory concentration (N. gonorrhoeae [1]; [9]): 0.5 µg/mL (≈ 1.24 µM)
- Minimum inhibitory concentration (N. gonorrhoeae [1]; [10]): 0.5 µg/mL (≈ 1.24 µM)
- Minimum inhibitory concentration (N. gonorrhoeae [1]; [11]): 0.5 µg/mL (≈ 1.24 µM)
- Minimum inhibitory concentration (N. gonorrhoeae [1]; [12]): 1 µg/mL (≈ 2.47 µM)
- Minimum inhibitory concentration (N. gonorrhoeae [1]; [13]): 1 µg/mL (≈ 2.47 µM)
- Minimum inhibitory concentration (N. gonorrhoeae [1]; [14]): 1 µg/mL (≈ 2.47 µM)
- Minimum inhibitory concentration (N. gonorrhoeae [1]; [15]): 0.5 µg/mL (≈ 1.24 µM)
- Minimum inhibitory concentration (N. gonorrhoeae [1]; [16]): 1 µg/mL (≈ 2.47 µM)
- Minimum inhibitory concentration (N. gonorrhoeae [1]; [17]): 2 µg/mL (≈ 4.94 µM)
- Minimum inhibitory concentration (N. gonorrhoeae [1]; [18]): 0.5 µg/mL (≈ 1.24 µM)
- Minimum inhibitory concentration (N. gonorrhoeae [1]; [19]): 0.5 µg/mL (≈ 1.24 µM)
- Minimum inhibitory concentration (N. gonorrhoeae [1]; [20]): 0.5 µg/mL (≈ 1.24 µM)
- IC50 [2]: 14 nM
- fold less potent than its enantiomer compound 2 (NgFabI IC50) [2]: 5 fold

- MIC (N. gonorrhoeae [1]; [7]): 0.25 µg/mL (≈ 0.618 µM)
- MIC (N. gonorrhoeae [1]; [8]): 0.125 µg/mL (≈ 0.309 µM)
- MIC (N. gonorrhoeae [1]; [9]): 0.125 µg/mL (≈ 0.309 µM)
- MIC (N. gonorrhoeae [1]; [10]): 0.125 µg/mL (≈ 0.309 µM)
- MIC (N. gonorrhoeae [1]; [11]): 0.06 µg/mL (≈ 0.148 µM)
- MIC (N. gonorrhoeae [1]; [12]): 0.25 µg/mL (≈ 0.618 µM)
- MIC (N. gonorrhoeae [1]; [13]): 0.25 µg/mL (≈ 0.618 µM)
- MIC (N. gonorrhoeae [1]; [14]): 0.125 µg/mL (≈ 0.309 µM)
- MIC (N. gonorrhoeae [1]; [15]): 0.125 µg/mL (≈ 0.309 µM)
- MIC (N. gonorrhoeae [1]; [16]): 0.125 µg/mL (≈ 0.309 µM)
- MIC (N. gonorrhoeae [1]; [17]): 0.5 µg/mL (≈ 1.24 µM)
- MIC (N. gonorrhoeae [1]; [18]): 0.125 µg/mL (≈ 0.309 µM)
- MIC (N. gonorrhoeae [1]; [19]): 0.125 µg/mL (≈ 0.309 µM)
- MIC (N. gonorrhoeae [1]; [20]): 0.125 µg/mL (≈ 0.309 µM)
- IC50 [2]: 2.4 nM
SMILES: Cc1c(CN(C)C(=O)/C=C/c2cnc3c(c2)N[C@H](C)CC(=O)N3)oc2ccccc12 [Compound 2]
- NgMIC50 (N. gonorrhoeae [1]): 0.125 µg/mL
